The results in this text go back to ChEMBL document CHEMBL4627321, “Enantioselective synthesis of tetrahydrocarbazoles via trienamine catalysis and their anxiolytic-like activity” (Bioorg Med Chem Lett, 2020).

The subject of data set [1] is Mus musculus. The experiment in a line: Anxiolytic activity in BALB/c mouse assessed as reduction in anxiety like behaviour administered orally 1 hr prior to experiment by cylinder exploratory test. The settings on record: for ED50: po. The format is functional.
The test system of data set [2] is Mus musculus. The experiment in a line: Anxiolytic activity in BALB/c mouse at 25 mg/kg, po administered 1 hr prior to experiment by cylinder exploratory test relative to control. Format: functional.
A short description of data set [3]: Effect on locomotor activity in BALB/c mouse assessed as reduction in time spent in rotarod at 100 mg/kg, po measured after 1 hr post treatment by rotarod test. To be noted: in vivo. The format is ADME, organism-based. In general terms: In the rotarod test animals must keep their balance on a rotating rod.
Data set [4] is described as follows: Effect on locomotor activity in BALB/c mouse assessed as reduction in time spent in rotarod at <25 mg/kg, po by rotarod test. The format is ADME, organism-based. The settings on record: in vivo.
The subject of data set [5] is Mus musculus. Briefly: Anxiolytic activity in BALB/c mouse at 7.7 mg/kg, po after 5 mins in presence of GABAA receptor antagonist 0.7 mg/kg bicuculline by cylinder exploratory test. The format is functional, organism-based.
Data set [6] deals with Mus musculus. Briefly: Anxiolytic activity in BALB/c mouse at 7.7 mg/kg, po after 5 mins in presence of 1 mg/kg ketanserin by cylinder exploratory test. Format: functional, organism-based.
Data set [7] has as its system Mus musculus. The experiment in a line: Anxiolytic activity in BALB/c mouse at 7.7 mg/kg, po after 5 mins in presence of 1 mg/kg yohimbine by cylinder exploratory test. The format is functional, organism-based.
For data set [8], the system named is Mus musculus. The experiment in a line: Anxiolytic activity in BALB/c mouse at 3.3 mg/kg, po after 5 mins in presence of GABAA receptor antagonist 0.7 mg/kg bicuculline by cylinder exploratory test. The format is functional, organism-based.
Data set [9] deals with Mus musculus. Briefly: Anxiolytic activity in BALB/c mouse at 3.3 mg/kg, po after 5 mins in presence of 1 mg/kg ketanserin by cylinder exploratory test. Format: functional, organism-based.
Data set [10] has as its system Mus musculus. The experiment in a line: Anxiolytic activity in BALB/c mouse at 3.3 mg/kg, po after 5 mins in presence of 1 mg/kg yohimbine by cylinder exploratory test. The format is functional, organism-based.

Activity calls are given as the source filed them. The calls are words filed in the database; no cut-off is given here.

Turning to `CCOC(=O)[C@]1(C#N)[C@@H](c2ccccc2)Cc2c(c3ccccc3n2Cc2ccccc2)[C@@H]1CC=O`, the Activity result with Mus musculus [1] is “Dose-dependent effect”; in the data set with Mus musculus [2], 83.4%; in [3], “Toxic”; in data set [4] it was “Non-Toxic”. Further, in the data set on Mus musculus [1], the ED50 was found to be 7.7 mg/kg. For the same molecule, the outcome with Mus musculus [5] was inactive. Also, the outcome in the data set with Mus musculus [6] and with Mus musculus [7] was Active.
Regarding `CCOC(=O)[C@]1(C#N)[C@@H](c2ccccc2)Cc2c(c3ccccc3n2C(=O)OC(C)(C)C)[C@@H]1CC=O`, the figures for the Activity result (with Mus musculus [1]; in the data set with Mus musculus [2]; in [4]) were “Dose-dependent effect”, 72% and “Non-Toxic”, respectively. The ED50 in the data set with Mus musculus [1] came to 3.3 mg/kg. The result with Mus musculus [8] was inactive. In addition, the result with Mus musculus [9] and with Mus musculus [10] was Active.

Broadly, the ED50 is the dose that gives a 50% effect, or the effect in half of the subjects.
